The values that follow come from patent US11807649B2, “Fused tetracyclic quinazoline derivatives as inhibitors of ErbB2” (EnLiven Therapeutics, Inc., priority 2021, dated 2023).

pIC50: −log10 of the molar value.

For this assay, the system named is Ba/F3 ERBB2 YVMA. In words: Cell viability assay (CellTiter Glo), Ba/F3 cells engineered to express ERBB2 YVMA. The format is cell-based. The following applies: Mus musculus, BaF3, 72 h, Ba/F3 cells expressing human ERBB2 YVMA mutant; 72 hours; cell viability, CellTiter Glo; read-out: Ba/F3 ERBB2 YVMA, IC50. The protocol: Cells were treated with compounds, and cell viability was measured as a metric of kinase inhibition.
BT-474, A431, MDA-MB-175VII, NCI-H1781, MCF7, and Ba/F3 cell lines were tested. The Ba/F3 cell line is IL-3-dependent mouse cell line derived from the C3H mouse strain. Ba/F3 cell lines were engineered to express human ERBB2 or EGFR kinases, rendering the cells IL-3 independent. The lines were generated via retroviral transduction utilizing a Moloney murine leukemia virus (MMLV) promoter, and constructs are stably integrated into the cell genome. The sequences of the ERBB2 and EGFR genes used were NCBI Reference Sequences NM 004448.3 and NM 005228.3, respectively.
BT-474, A431, MDA-MB-175VII, NCI-H1781 and MCF7 cells were grown in the appropriate growth medium as described in Table B2 below, and harvested at 50-80% confluence. BT-474, A431, MDA-MB-175VII, NCI-H1781 and MCF7 cells were counted and seeded at 2,000 or 1,500 cells per well in 384-well tissue culture plates (see Table B2). Similarly, Ba/F3 cell lines engineered to express EGFR, ERBB2, or ERBB2 mutants were grown, harvested, counted and seeded at 3000 cells per well in 96-well plates. A subset of wells contained media only (low control, “LC”).
Table B1 provides the growth media and number of cells seeded per well for the each cell line.
Compounds were dissolved in DMSO and serially diluted. Serially-diluted compound or a DMSO only control (high control, “HC”) was added to the plated cells in each well. Compounds were tested at concentrations of about 10 μM to 0.51 nM, using three-fold dilutions. The final proportion of DMSO never exceeded 0.1%.
Plates were placed in a 37° C., 5% CO2 incubator for 72 hours. Plates were then removed from the incubator and equilibrated for 15 minutes at room temperature. […] of CellTiter Glo reagent (Promega) was added to measure the relative level of metabolically active cells by quantifying intracellular ATP concentrations. Plates were incubated for 30 minutes at room temperature, and luminescence was measured. Percent viability was normalized to a vehicle control only using the following formula: % viability=100×(Lumsample−LumLC)/(LumHC−LumLC). Graphical curves were fitted using a nonlinear regression model with a sigmoidal dose response.

Turning to `Cc1cc(Nc2ncnc3cc4c(nc23)N2CCN(C(=O)/C=C/CN(C)C)[C@H](CO4)C2)c(F)cc1Oc1ccn2ncnc2c1` [Compound 24, (E)-1-((10S)-4-((4-([1,2,4]triazolo[1,5-a]pyridin-7-yloxy)-2-fluoro-5-methylphenyl)amino)-7,8,10,11-tetrahydro-9H-6,10-methanopyrimido[4′,5′:5,6]pyrido[3,2-b][1,4,7]oxadiazonin-9-yl)-4-(dimethylamino)but-2-en-1-one], the pIC50 was 8.19.
For `Cc1cc(Nc2ncnc3cc4c(nc23)N2CCN(C(=O)/C=C/[C@@H](C)N(C)C)[C@H](CO4)C2)c(F)cc1Oc1ccn2ncnc2c1` [Compound 50, (4R,E)-1-((10S)-4-((4-([1,2,4]triazolo[1,5-a]pyridin-7-yloxy)-2-fluoro-5-methylphenyl)amino)-7,8,10,11-tetrahydro-9H-6,10-methanopyrimido[4′,5′:5,6]pyrido[3,2-b][1,4,7]oxadiazonin-9-yl)-4-(dimethylamino)pent-2-en-1-one] the value was 7.20; for `CN(C)C/C=C/C(=O)N1CCN2C[C@H]1COc1cc3ncnc(Nc4ccc(Oc5ccn6ncnc6c5)c(F)c4)c3nc12` [Compound 39, (E)-1-((10S)-4-((4-([1,2,4]triazolo[1,5-a]pyridin-7-yloxy)-3-fluorophenyl)amino)-7,8,10,11-tetrahydro-9H-6,10-methanopyrimido[4′,5′:5,6]pyrido[3,2-b][1,4,7]oxadiazonin-9-yl)-4-(dimethylamino)but-2-en-1-one], 8.26.
As for `Cc1cc(Nc2ncnc3cc4c(nc23)N2CCN(C(=O)/C=C/CN(C)C)CC(CO4)C2)ccc1Oc1ccn2ncnc2c1` (stereo not drawn) [Compound 57, (E)-1-(4-((4-([1,2,4]triazolo[1,5-a]pyridin-7-yloxy)-3-methylphenyl)amino)-7,8,11,12-tetrahydro-6,11-methanopyrimido[4′,5′:5,6]pyrido[3,2-b][1,4,7]oxadiazecin-9(10H)-yl)-4-(dimethylamino)but-2-en-1-one], the pIC50 was 6.76.
Consider `CC#CC(=O)N1CCN2C[C@H]1COc1cc3ncnc(Nc4ccc(Oc5ccn6ncnc6c5)c(C)c4)c3cc12` [Compound 12, 1-((10S)-4-((4-([1,2,4]triazolo[1,5-a]pyridin-7-yloxy)-3-methylphenyl)amino)-7,8,10,11-tetrahydro-9H-6,10-methano[1,4,7]oxadiazonino[3,2-g]quinazolin-9-yl)but-2-yn-1-one], for which the pIC50 was 7.36.
In the case of `Cc1cc(Nc2ncnc3cc4c(nc23)N2CCN(C(=O)/C=C/CN(C)C)[C@H](CO4)C2)ccc1Oc1ccc2c(c1)ncn2C` [Compound 6, (E)-4-(dimethylamino)-1-((10S)-4-((3-methyl-4-((1-methyl-1H-benzo[d]imidazol-5-yl)oxy)phenyl)amino)-7,8,10,11-tetrahydro-9H-6,10-methanopyrimido[4′,5′: 5,6]pyrido[3,2-b][1,4,7]oxadiazonin-9-yl)but-2-en-1-one], the pIC50 is 7.80.
As to `C=C(F)C(=O)N1CCN2C[C@H]1COc1cc3ncnc(Nc4ccc(Oc5ccn6ncnc6c5)c(C)c4)c3nc12` [Compound 23, 1-((10S)-4-((4-([1,2,4]triazolo[1,5-a]pyridin-7-yloxy)-3-methylphenyl)amino)-7,8,10,11-tetrahydro-9H-6,10-methanopyrimido[4′,5′:5,6]pyrido[3,2-b][1,4,7]oxadiazonin-9-yl)-2-fluoroprop-2-en-1-one], the pIC50 was 6.65.
On to `CN(C)C/C=C/C(=O)N1CCN2C[C@H]1COc1cc3ncnc(Nc4cc(Cl)c(Oc5ccn6ncnc6c5)cc4F)c3nc12` [Compound 43, (E)-1-((10S)-4-((4-([1,2,4]triazolo[1,5-a]pyridin-7-yloxy)-5-chloro-2-fluorophenyl)amino)-7,8,10,11-tetrahydro-9H-6,10-methanopyrimido[4′,5′:5,6]pyrido[3,2-b][1,4,7]oxadiazonin-9-yl)-4-(dimethylamino)but-2-en-1-one], for which the pIC50 was 8.33.
Under `CN(C)C/C=C/C(=O)N1CCN2C[C@H]1COc1cc3ncnc(Nc4ccc(Oc5ccn6ncnc6c5)cc4)c3nc12` [Compound 31, (E)-1-((10S)-4-((4-([1,2,4]triazolo[1,5-a]pyridin-7-yloxy)phenyl)amino)-7,8,10,11-tetrahydro-9H-6,10-methanopyrimido[4′,5′:5,6]pyrido[3,2-b][1,4,7]oxadiazonin-9-yl)-4-(dimethylamino)but-2-en-1-one] stands 7.70; under `Cc1ccc(Oc2ccc(Nc3ncnc4cc5c(nc34)N3CCN(C(=O)/C=C/CN(C)C)[C@H](CO5)C3)cc2C)cn1` [Compound 21, (E)-4-(dimethylamino)-1-((10S)-4-((3-methyl-4-((6-methylpyridin-3-yl)oxy)phenyl)amino)-7,8,10,11-tetrahydro-9H-6,10-methanopyrimido[4′,5′:5,6]pyrido[3,2-b][1,4,7]oxadiazonin-9-yl)but-2-en-1-one], 8.28.
In the case of `Cc1cc(Nc2ncnc3ccc(NC4=NC(C)(C)CO4)cc23)ccc1Oc1ccn2ncnc2c1` [Tucatinib, tucatinib, reference compound], the pIC50 is 6.98.
Under `CN(C)C/C=C/C(=O)N1CCN2C[C@H]1COc1cc3ncnc(Nc4ccc(Oc5ccn6ncnc6c5)cc4F)c3nc12` [Compound 42, (E)-1-((10S)-4-((4-([1,2,4]triazolo[1,5-a]pyridin-7-yloxy)-2-fluorophenyl)amino)-7,8,10,11-tetrahydro-9H-6,10-methanopyrimido[4′,5′:5,6]pyrido[3,2-b][1,4,7]oxadiazonin-9-yl)-4-(dimethylamino)but-2-en-1-one] stands 7.99.
Under `CN(C)C/C=C/C(=O)N1CCN2C[C@H]1COc1cc3ncnc(Nc4ccc(Oc5ccn6ncnc6c5)c(Cl)c4)c3nc12` [Compound 32, (E)-1-((10S)-4-((4-([1,2,4]triazolo[1,5-a]pyridin-7-yloxy)-3-chlorophenyl)amino)-7,8,10,11-tetrahydro-9H-6,10-methanopyrimido[4′,5′:5,6]pyrido[3,2-b][1,4,7]oxadiazonin-9-yl)-4-(dimethylamino)but-2-en-1-one] stands 8.34; under `Cc1cc(Nc2ncnc3cc4c(nc23)N2CCN(C(=O)/C=C/[C@H]3CCCN3C)[C@H](CO4)C2)ccc1Oc1ccn2ncnc2c1` [Compound 27, (E)-1-((10S)-4-((4-([1,2,4]triazolo[1,5-a]pyridin-7-yloxy)-3-methylphenyl)amino)-7,8,10,11-tetrahydro-9H-6,10-methanopyrimido[4′,5′:5,6]pyrido[3,2-b][1,4,7]oxadiazonin-9-yl)-3-((R)-1-methylpyrrolidin-2-yl)prop-2-en-1-one], 7.97.
As to `Cc1cc(Nc2ncnc3cc4c(nc23)N2CCN(C(=O)/C=C/C3(F)CN(C)C3)[C@H](CO4)C2)ccc1Oc1ccn2ncnc2c1` [Compound 53, (E)-1-((10S)-4-((4-([1,2,4]triazolo[1,5-a]pyridin-7-yloxy)-3-methylphenyl)amino)-7,8,10,11-tetrahydro-9H-6,10-methanopyrimido[4′,5′:5,6]pyrido[3,2-b][1,4,7]oxadiazonin-9-yl)-3-(3-fluoro-1-methylazetidin-3-yl)prop-2-en-1-one], the pIC50 is 6.93.
For `CC#CC(=O)N1CCN2C[C@H]1COc1cc3ncnc(Nc4ccc(Oc5ccc6c(c5)ncn6C)c(C)c4)c3nc12` [Compound 16, 1-((10S)-4-((3-methyl-4-((1-methyl-1H-benzo[d]imidazol-5-yl)oxy)phenyl)amino)-7,8,10,11-tetrahydro-9H-6,10-methanopyrimido[4′,5′:5,6]pyrido[3,2-b][1,4,7]oxadiazonin-9-yl)but-2-yn-1-one] the value was 7.85; for `Cc1cc(Nc2ncnc3cc4c(nc23)N2CCN(C(=O)/C=C/CN(C)C)[C@H](CO4)C2)ccc1Oc1cccnc1` [Compound 25, (E)-4-(dimethylamino)-1-((10S)-4-((3-methyl-4-(pyridin-3-yloxy)phenyl)amino)-7,8,10,11-tetrahydro-9H-6,10-methanopyrimido[4′,5′:5,6]pyrido[3,2-b][1,4,7]oxadiazonin-9-yl)but-2-en-1-one], 8.69; for `CC#CC(=O)N1CCN2C[C@H]1COc1cc3ncnc(Nc4ccc(Oc5ccn6ncnc6c5)c(C)c4)c3nc12` [Compound 18, 1-((10S)-4-((4-([1,2,4]triazolo[1,5-a]pyridin-7-yloxy)-3-methylphenyl)amino)-7,8,10,11-tetrahydro-9H-6,10-methanopyrimido[4′,5′:5,6]pyrido[3,2-b][1,4,7]oxadiazonin-9-yl)but-2-yn-1-one], 7.67.
